Series [1] in a line: Solubility of crystalline forms (supersaturated suspension shaken at 37° C. for 24 h, HPLC-UV). It counts as physicochemical. The following applies: thermodynamic from solid, 800 rpm. On the procedure: 1-2 mg of a test sample was taken and placed in a semi-automatic filter vial, and 450 μL of purified water or FeSSIF simulated fluid (fed state simulated intestinal fluid) was added to give a supersaturated suspension. The sample was vortexed for at least 2 min. The vial was placed on a plate shaker and shaken at 37° C. at 800 rpm for 24 h. After centrifugal filtration, the sample was subjected to HPLC-UV linear quantitative analysis for concentration.
FeSSIF (fed state simulated intestinal fluid): an aqueous buffer solution comprising 0.282% (w/v) lecithin, 0.806% (w/v) sodium taurocholate, 0.865% (w/v) acetic acid, 1.52% (w/v) potassium chloride, with a pH of […]

The conditions of series [2]: oral administration; cited from earlier work.
Another series relates to breast cancer patients. The following applies: intramuscular injection; cited from earlier work.
Series [3] is described as follows: Forced degradation experiment. It counts as physicochemical. On the procedure:
Control group: 20 mg of a sample was weighed out, a proper amount of diluent (acetonitrile:water=1:1, v/v) was added to dissolve the sample, and then the solution was brought to a volume of 100 mL with the diluent (acetonitrile:water=1:1, v/v). A proper amount of the solution was taken for analysis. Acidic degradation: 20 mg of the sample was weighed out, and 1 mL of a 1 M aqueous HCl solution was added. After sitting at room temperature for 24 h, the mixture was neutralized with 1 mL of a 1 M aqueous NaOH solution. The solution was brought to a volume of 100 mL with the diluent (acetonitrile:water=1:1, v/v). A proper amount of the solution was taken for analysis. Basic degradation: 20 mg of the sample was weighed out, and 1 mL of a 1 M aqueous NaOH solution was added. After sitting at room temperature for 24 h, the mixture was neutralized with 1 mL of a 1 M aqueous HCl solution. The solution was brought to a volume of 100 mL with the diluent (acetonitrile:water=1:1, v/v). A proper amount of the solution was taken for analysis. Oxidative degradation: 20 mg of the sample was weighed out, 1 mL of a 3% aqueous hydrogen peroxide solution was added, and the mixture was left at room temperature for 24 h. The solution was brought to a volume of 100 mL with the diluent (acetonitrile:water=1:1, v/v). A proper amount of the solution was taken for analysis.

Series [4] can be described thus: In vivo pharmacokinetic study after a single oral dose. The following applies: dog; female beagle dogs, single oral dose 100 mg/kg at 1 h after feeding, plasma, mean. On the procedure: This experiment was intended to evaluate the pharmacokinetic behavior of the compound after a single intragastric administration and to investigate bioavailability after intragastric administration. Two female beagle dogs were each given a single oral dose of the crystalline form I of the compound of formula (II) at 100 mg/kg at 1 h after feeding, and plasma samples were taken at 0.0833 (5 min), 0.25 (15 min), 0.5 (30 min), 1, 2, 4, 6, 8, 12, and 24 h after administration and assayed for the concentration of the test substance by LC-MS/MS.

A short description of series [5]: Dynamic vapor sorption (DVS) hygroscopicity. The following applies: from the DVS patterns, 25° C. It counts as physicochemical. On the procedure: 1.4. Dynamic Vapor Sorption (DVS) Method of the Present Application
Instrument model: DVS Intrinsic instrument from SMS (Surface Measurement Systems) Inc.
Temperature: 25° C.; sample amount: 10-30 mg; protective gas and flow: N2, 200 mL/min; dm/dt: 0.002%/min; minimum dm/dt equilibration time: 10 min; maximum equilibration time: 180 min; RH range: 0% RH-95% RH-0% RH; RH gradient: 10% (90% RH-0% RH-90% RH), 5% (95% RH-90% RH and 90% RH-95% RH).

Where [6] appears, read: Vehicle: FeSSIF (fed state simulated intestinal fluid).

This is an account of results in US20240043401A1, “SALT FORM OF TETRA-SUBSTITUTED OLEFIN COMPOUND, CRYSTAL, AND PREPARATION METHOD THEREFOR” (CHIA TAI TIANQING PHARMACEUTICAL GROUP CO., LTD., priority 2020, published 2024).

One may read the solubility as how much of the substance goes into solution per volume. Read a low solubility as little dissolved substance. The term AUC(0-t) denotes exposure summed from dosing to a finite time, without extrapolation to infinity. The Cmax is the highest concentration seen after dosing. A word on the Tmax: it is the time from dosing to the highest level. For orientation: half-life means the time in which the quantity being followed falls by half.

In brackets after ≈: the same amount, converted by molar mass.

For the molecule `CC/C(=C(/c1ccc(OCCNC/C=C/C(=O)N(C)C)nc1)c1[nH]c2ccccc2c1Cl)c1ccccc1.O=C(O)/C=C/C(=O)O`, in series [1] (setting [6]), the solubility at 24 h is 1950 µg/mL.
In the case of `C[C@]12CC[C@@H]3c4ccc(O)cc4C[C@@H](CCCCCCCCC[S+]([O-])CCCC(F)(F)C(F)(F)F)[C@H]3[C@@H]1CC[C@@H]2O` (stereo partly drawn) [fulvestrant], the Bioavailability entry in series [2] is “zero”. In addition, the Clinical response rate entry in the series on breast cancer patients was “about 50%”.
Regarding `CC/C(=C(/c1ccc(OCCNC/C=C/C(=O)N(C)C)nc1)c1[nH]c2ccccc2c1Cl)c1ccccc1.Cl` [listing 1 of 2 here], the Total impurities came out at 0.56% in series [3] (Acidic degradation: 1 M aqueous HCl, room temperature, 24 h); 0.54% in series [3] (Basic degradation: 1 M aqueous NaOH, room temperature, 24 h); 0.60% in series [3] (Not degraded (control group, dissolved in acetonitrile:water 1:1)); 3.5% in series [3] (Oxidative degradation: 3% aqueous hydrogen peroxide, room temperature, 24 h).
For the molecule `Br.CC/C(=C(/c1ccc(OCCNC/C=C/C(=O)N(C)C)nc1)c1[nH]c2ccccc2c1Cl)c1ccccc1`, the solubility at 24 h in series [1] (setting [6]) is 1370 µg/mL.
Consider `CC/C(=C(/c1ccc(OCCNC/C=C/C(=O)N(C)C)nc1)c1[nH]c2ccccc2c1Cl)c1ccccc1.Cl` [listing 2 of 2 here], for which the solubility at 24 h was 237 µg/mL in series [1] (purified water, Vehicle: Water) and 1900 µg/mL in series [1] (setting [6]). The AUC(0-t) in series [4] stood at 229 µM·h. Further, the concentration in series [4] peaked (Cmax) at 14 µM. In series [4], the Tmax amounted to 6 h. The molecule also gave a half-life in series [4] of 14.9 h. Besides, the Total impurities worked out at 0.34% in series [3] (Acidic degradation: 1 M aqueous HCl, room temperature, 24 h, listed as crystalline form I of the compound of formula (II)); 0.35% in series [3] (Basic degradation: 1 M aqueous NaOH, room temperature, 24 h, listed as crystalline form I of the compound of formula (II)); 0.34% in series [3] (Not degraded (control group, dissolved in acetonitrile:water 1:1), listed as crystalline form I of the compound of formula (II)); 0.92% in series [3] (Oxidative degradation: 3% aqueous hydrogen peroxide, room temperature, 24 h, listed as crystalline form I of the compound of formula (II)). For the same molecule, the Hygroscopicity result in series [5] is on record as “lower hygroscopicity than the amorphous form”.
Take `CC/C(=C(/c1ccc(OCCNC/C=C/C(=O)N(C)C)nc1)c1[nH]c2ccccc2c1Cl)c1ccccc1`: the solubility at 24 h in series [1] (purified water, Vehicle: Water) was below 0.8 µg/mL; in series [1] (setting [6]) it was 316 µg/mL (≈ 597 µM).
